Laboratory results: patent publication US6455587B1 (priority 2000, dated 2002)

molecular target: T1, recombinant HIV-1 protease (Human immunodeficiency virus type 1 group M subtype B, UniProt P04585); assay: Enzymatic fluorometric (FRET) assay for determining the inhibition constant (Ki) against HIV protease; type: biochemical; conditions: Ki (nM)
T1 construct: recombinant HIV-1 protease (final concentration 2.18 nM) purchased from Bachem Bioscience; purchased Bachem Bioscience
Text: An Enzymatic assay for determining the inhibition constant (Ki) of synthetic compounds targeting the HIV protease may be carried out as follows: This is a fluorometric assay based on the cleavage by protease of a substrate carrying a donor group (EDANS) and an acceptor group (DABCYL) on each side of the cleavage site, interacting together through fluorescence resonance energy transfer (FRET). Cleavage of the substrate by protease stops energy exchange between the two groups, resulting in a time-dependent increase in fluorescence intensity that is linearly related to the extent of substrate hydrolysis.
The enzymatic assay is done at 31° C. in white 96-well fluorescence microplates, in a total volume of 200 μL per well. The apparatus used for analysis is a FL600 fluorescence microplate reader (Biotek Instruments). […] Excitation of the fluorophore is done at 340 nm and emission at 485 nm is recorded continuously during the reaction, allowing determination of the enzyme's initial velocity (v0). At the end of the 4 min incubation, the potential inhibitor at a defined concentration in a volume of 4 μL is added to the reaction, and fluorescence readings are taken for another 4 min, allowing determination of enzyme velocity (vi) in the presence of the inhibitory compound. Several concentrations of the putative inhibitors are tested in the assay. After calculation of v0 and vi, the inhibition constant (Ki) of the compound is determined using the equation of Henderson: [formula]
and [I]=inhibitor concentration, [S]=substrate concentration,
Km=Michaelis-Menten constant, Kiapp=apparent Ki
Graphs are traced and the Ki determined using GraphPad Prism software v. 3.0.

Point of comparison: `Cc1ccc(S(=O)(=O)N(CC(C)C)[C@@H](CCCCNC(=O)OCC2c3ccccc3-c3ccccc32)C(=O)O)cc1` [Compound 67, Nα-Isobutyl-Nα-(4-methylbenzenesulfonyl)-Nε-(9-fluorenylmethoxycarbonyl)-L-lysine], Ki 4.3 nM. Against it:
- Cc1ccc(S(=O)(=O)N(CC2CC2)[C@@H](CCCCNC(=O)OCC2c3ccccc3-c3ccccc32)C(=O)O)cc1 [Compound 43, Nα-Cyclopropylmethyl-Nα-(4-methylbenzenesulfonyl)-Nε-(9-fluorenylmethoxycarbonyl)-L-lysine] — within 1.5-fold, 3.9 nM
- CC(C)CN(C(CCCCNC(=O)OCc1ccccc1)C(=O)O)S(=O)(=O)c1ccc(Br)cc1 (stereo not shown) [Compound 67] — higher, > 100 nM
- O=C(NCCCC[C@H](NC(=O)OCC1c2ccccc2-c2ccccc21)C(=O)O)OCC1c2ccccc2-c2ccccc21 [Compound 71, Nα,Nε-di-(9-Fluorenylmethoxycarbonyl)-L-lysine] — 10000-fold higher, 44800 nM

same assay, conditions: fluorometric FRET assay, recombinant HIV-1 protease, pH 4.7, 31° C.; read-out: Ki

Point of comparison: `CC1(C)[C@@H]2CC[C@@]1(CS(=O)(=O)NCCCC[C@H](NC(=O)OCC1c3ccccc3-c3ccccc31)C(=O)O)C(=O)C2` [Compound 35, Nε-(1S)-(10-Camphorsulfonyl)-Nα-(9-fluorenylmethoxycarbonyl)-L-lysine], Ki 33000 nM. Against it:
- O=C(N[C@@H](CCCCNS(=O)(=O)c1cccc(C(F)(F)F)c1)C(=O)O)OCC1c2ccccc2-c2ccccc21 [Compound 34, Nε-(3-Trifluoromethylbenzenesulfonyl)-Nα-(9-fluorenylmethoxycarbonyl)-L-lysine] — 1.5-fold lower, 22000 nM
- O=C(N[C@@H](CCCCNS(=O)(=O)c1ccc(Br)cc1)C(=O)O)C(c1ccccc1)c1ccccc1 [Compound 36, Nα-(Diphenylacetyl)-Nε-(4-bromobenzenesulfonyl)-L-lysine] — within 1.5-fold, 24000 nM
- O=C(O)[C@H](CCCCNS(=O)(=O)c1ccc(Br)cc1)NC(=O)C(O)(c1ccccc1)c1ccccc1 [Compound 37, Nα-(Diphenylhydroxyacetyl)-Nε-(4-bromobenzenesulfonyl)-L-lysine] — 1.6-fold higher, 54000 nM
- O=C(N[C@@H](CCCCNS(=O)(=O)c1ccc(Br)cc1)C(=O)O)C1c2ccccc2-c2ccccc21 [Compound 38, Nα-(9-Fluorenecarbonyl)-Nε-(4-bromobenzenesulfonyl)-L-lysine] — 7-fold lower, 4700 nM
- Cc1ccc(S(=O)(=O)N(Cc2ccccc2)[C@@H](CCCCNC(=O)OCC2c3ccccc3-c3ccccc32)C(=O)O)cc1 [Compound 40, Nα-Benzyl-Nα-(4-methylbenzenesulfonyl)-Nε-(9-fluorenylmethoxycarbonyl)-L-lysine] — 1700-fold lower, 19.6 nM
- CC(C)CN(CCC[C@H](NC(=O)OCC1c2ccccc2-c2ccccc21)C(=O)O)S(=O)(=O)c1ccc(Br)cc1 [Compound 41, Nα-(9-Fluorenylmethoxycarbonyl)-Nδ-isobutyl-Nδ-(4-bromobenzenesulfonyl)-L-ornithine] — higher, > 50000 nM
- Cc1cc(C)c(S(=O)(=O)N(CC(C)C)[C@@H](CCCCNC(=O)OCC2c3ccccc3-c3ccccc32)C(=O)O)c(C)c1 [Compound 42, Nα-Isobutyl-Nα-(2,4,6-trimethylbenzenesulfonyl)-Nε-(9-fluorenylmethoxycarbonyl)-L-lysine] — not separable, > 100 nM
- CC(C)CN([C@@H](CCCCNC(=O)OCC1c2ccccc2-c2ccccc21)C(=O)O)S(=O)(=O)c1ccc(N)cc1 [Compound 44, Nα-(4-Aminobenzenesulfonyl)-Nα-isobutyl-Nε-(9-fluorenylmethoxycarbonyl)-L-lysine] — 16000-fold lower, 2.1 nM
- CC(C)CN(C(=O)c1ccccc1)[C@@H](CCCCNC(=O)OCC1c2ccccc2-c2ccccc21)C(=O)O [Compound 46, Nα-Isobutyl-Nα-benzoyl-Nε-(9-fluorenylmethoxycarbonyl)-L-lysine] — not separable, > 100 nM
- O=C(N[C@@H](CCCCNS(=O)(=O)c1ccccc1)C(=O)O)OCC1c2ccccc2-c2ccccc21 [Compound 49, Nε-Benzenesulfonyl-Nα-(9-fluorenylmethoxycarbonyl)-L-lysine] — 3.7-fold lower, 8900 nM
- Nc1ccc(S(=O)(=O)NCCCC[C@H](NC(=O)OCC2c3ccccc3-c3ccccc32)C(=O)O)cc1 [Compound 52, Nε-(4-Aminobenzenesulfonyl)-Nα-(9-fluorenylmethoxycarbonyl)-L-lysine] — 4.9-fold lower, 6800 nM
- O=C(N[C@@H](CCCCNS(=O)(=O)c1ccc(Cl)cc1)C(=O)O)OCC1c2ccccc2-c2ccccc21 [Compound 53, Nε-(4-Chlorobenzenesulfonyl)-Nα-(9-fluorenylmethoxycarbonyl)-L-lysine] — 6.9-fold lower, 4800 nM
- O=C(N[C@@H](CCCCNS(=O)(=O)c1cc(Cl)ccc1Cl)C(=O)O)OCC1c2ccccc2-c2ccccc21 [Compound 54, Nε-(2,5-Dichlorobenzenesulfonyl)-Nα-(9-fluorenylmethoxycarbonyl)-L-lysine] — not separable, > 6250 nM
- O=C(O)[C@H](CCCNS(=O)(=O)c1ccc(Br)cc1)NS(=O)(=O)c1ccc(Br)cc1 [Compound 57, Nα,Nδ-di-(4-Bromobenzenesulfonyl)-L-ornithine] — within 1.5-fold, 42400 nM
- O=C(O)[C@H](CCCN(Cc1ccc(F)cc1)S(=O)(=O)c1ccc(Br)cc1)NS(=O)(=O)c1ccc(Br)cc1 [Compound 59, Nα,Nδ-di-(4-Bromobenzenesulfonyl)-Nδ-(4-fluorobenzyl)-L-ornithine] — higher, > 34900 nM
- O=C(O)[C@H](CCCCN(Cc1ccc(F)cc1)S(=O)(=O)c1ccc(Br)cc1)NS(=O)(=O)c1ccc(Br)cc1 [Compound 60, Nα,Nε-di-(4-bromobenzenesulfonyl)-Nε-(4-fluorobenzyl)-L-lysine] — higher, > 50000 nM
- O=C(N[C@@H](CCCNS(=O)(=O)c1ccc([N+](=O)[O-])cc1)C(=O)O)OCC1c2ccccc2-c2ccccc21 [Compound 62, Nδ-(4-Nitrobenzenesulfonyl)-Nα-(9-fluorenylmethoxycarbonyl)-L-ornithine] — within 1.5-fold, 26200 nM
- O=C(N[C@@H](CCCCNS(=O)(=O)c1ccc(I)cc1)C(=O)O)OCC1c2ccccc2-c2ccccc21 [Compound 64, Nε-(4-Iodobenzenesulfonyl)-Nα-(9-fluorenylmethoxycarbonyl)-L-lysine] — 1.7-fold lower, 19200 nM
- O=C(N[C@@H](CCCCNS(=O)(=O)c1ccc(Br)cc1)C(=O)O)c1ccccc1 [Compound 65, Nα-Benzoyl-Nε-(4-bromobenzenesulfonyl)-L-lysine] — higher, > 50000 nM
- O=C(NCCCC[C@H](NS(=O)(=O)c1ccc(Br)cc1)C(=O)O)OCC1c2ccccc2-c2ccccc21 [Compound 66, Nα-(4-Bromobenzenesulfonyl)-Nε-(9-fluorenylmethoxycarbonyl)-L-lysine] — 17-fold lower, 1900 nM
- Nc1ccc(S(=O)(=O)NCCC[C@H](NC(=O)OCC2c3ccccc3-c3ccccc32)C(=O)O)cc1 [Compound 69, Nδ-(4-Aminobenzenesulfonyl)-Nα-(9-fluorenylmethoxycarbonyl)-L-ornithine] — within 1.5-fold, 23800 nM
- O=C(NCCCC[C@H](NS(=O)(=O)c1ccc(Cl)cc1)C(=O)O)OCC1c2ccccc2-c2ccccc21 [Compound 72, Nα-(4-Chlorobenzenesulfonyl)-Nε-(9-fluorenylmethoxycarbonyl)-L-lysine] — 14-fold lower, 2380 nM
- O=C(NCCC[C@H](NC(=O)OCC1c2ccccc2-c2ccccc21)C(=O)O)OCC1c2ccccc2-c2ccccc21 [Compound 73, Nα,Nδ-di-(9-Fluorenylmethoxycarbonyl)-L-ornithine] — 25-fold lower, 1300 nM
- Cc1ccc(S(=O)(=O)N(CC(C)C)[C@@H](CCCCNC(=O)OCc2ccccc2)C(=O)OCc2ccccc2)cc1 [Compound 75, Nα-isobutyl-Nα-(4-methylbenzenesulfonyl)-Nε-benzyloxycarbonyl-L-lysine Benzyl Ester] — not separable, > 1250 nM
- CC(C)CN(C(CCCCNC(=O)OCc1ccccc1)C(=O)OCc1ccccc1)S(=O)(=O)C=Cc1ccccc1 (stereo not shown) [Compound 76] — not separable, > 1250 nM
- CC(C)CN([C@@H](CCCCNC(=O)OCc1ccccc1)C(=O)OCc1ccccc1)S(=O)(=O)c1ccc([N+](=O)[O-])cc1 [Compound 78, Nα-Isobutyl-Nα-(4-nitrobenzenesulfonyl)-Nε-benzyloxycarbonyl-L-lysine Benzyl Ester] — not separable, > 1250 nM
- CCC(CC)CN([C@@H](CCCCNC(=O)OCc1ccccc1)C(=O)OCc1ccccc1)S(=O)(=O)c1ccc(C)cc1 [Compound 80] — not separable, > 1250 nM
- Cc1ccc(S(=O)(=O)N(CC(C)C)C(CCCCNC(=O)C2c3ccccc3-c3ccccc32)C(=O)O)cc1 (stereo not shown) [Compound 83] — 310-fold lower, 105 nM
- Cc1ccc(S(=O)(=O)N(CC(C)C)C(CCCCNC(=O)CC2c3ccccc3-c3ccccc32)C(=O)O)cc1 (stereo not shown) [Compound 84] — 370-fold lower, 89.7 nM
- Cc1ccc(S(=O)(=O)N(CC(C)C)[C@@H](CCCCNC(=O)C2c3ccccc3Oc3ccccc32)C(=O)O)cc1 [Compound 85] — 2300-fold lower, 14.5 nM
- Cc1ccc(S(=O)(=O)N(CC(C)C)[C@@H](CCCCNC(=O)C(c2ccccc2)c2ccccc2)C(=O)O)cc1 [Compound 86] — 190-fold lower, 171 nM
- Cc1ccc(S(=O)(=O)N(CC(C)C)[C@@H](CCCCNC(=O)c2c[nH]c3ccccc23)C(=O)O)cc1 [Compound 87] — not separable, > 1250 nM
- Cc1ccc(S(=O)(=O)N(CC(C)C)C(CCCCNC(=O)c2cc3ccccc3[nH]2)C(=O)O)cc1 (stereo not shown) [Compound 88] — not separable, > 625 nM
- Cc1ccc(S(=O)(=O)N(CC(C)C)[C@@H](CCCCNC(=O)CCc2c[nH]c3ccccc23)C(=O)O)cc1 [Compound 89] — 4800-fold lower, 6.9 nM
- Cc1ccc(S(=O)(=O)N(CC(C)C)[C@@H](CCCCNC(=O)/C=C/c2ccccc2)C(=O)O)cc1 [Compound 90] — 44-fold lower, 747 nM
